Results taken from article PMC6426897, “Inhibition of NLRP3 inflammasome activation by cell-permeable stapled peptides” (Scientific Reports, 2019).
Where a SMILES comes first, the peptide text is derived from it. Bridges are numbered along the chain shown (N, C = ends). [ ]: non-standard residue; d: D form. R8 = C=CCCCCCC[C@@](C)(N)C(=O)O; S5 = C=CCCC[C@](C)(N)C(=O)O

Key:
NLRP3 inflammasome [1] = assay: IL-18 secretion from LPS-primed primary human monocytes upon ATP stimulation (ELISA); assay type: cell-based; conditions: human blood monocytes, LPS 0.1 μg/ml 4 h, ATP 30 min; 25, 50 and 100 μM; Fig. 8B
Experimental: (§1) Human monocytic THP-1 cells (1 × 10^7 cells) were plated in a 10-cm tissue culture dish and treated with PMA (200 nM) overnight to differentiate monocytic cells into macrophages. Cells were then washed and allowed to rest in fresh media for another day. For stimulation, differentiated THP-1 cells were trypsinized and seeded in 96-well plates (2 × 10^6/well). Peripheral blood mononuclear cells were isolated by Ficoll-Hypaque density gradient centrifugation from buffy coats obtained from anonymous donors provided by the National University Hospital Blood Bank, Singapore. Isolation of monocytes was performed using negative selection with the Monocyte Isolation Kit II (Miltenyi Biotech), following the manufacturer’s instructions. Monocytes were plated in tissue culture non-treated 96-well plates (2.5 × 10^5/well) in 250 µl RPMI 1640-Glutamax media supplemented with 3% human AB serum (Gemini Bio Products). […]
(§2) IL-1β levels were measured using antibodies from eBioscience (cat. #14-7018-81 and #13-7016-85), following the manufacturer’s instructions. IL-18 levels were measured using antibodies from MBL (D044-3 and D045-6) following the manufacturer’s instructions. The absorbance was measured at 450 nm with the reference wavelength at 570 nm, using an M200 Infinite plate reader (Tecan).

NLRP3 inflammasome [2] = assay: IL-1β secretion from LPS-primed primary human monocytes upon ATP stimulation (ELISA); assay type: cell-based; conditions: human blood monocytes, LPS 0.1 μg/ml 4 h, ATP 30 min; 25, 50 and 100 μM; Fig. 8B
Experimental: as §1, §2

NLRP3 inflammasome [3] = assay: IL-18 release from THP-1 cells stimulated with LPS and nigericin (ELISA); assay type: cell-based, human; conditions: THP-1, LPS/nigericin; 12.5, 25, 50 and 100 μM; Fig. 8A
Experimental: as §1, §2

[4] = Circular dichroism, percentage of helicity (K2D3); assay type: physicochemical; conditions: CD, room temperature, water, 100 μM peptide; estimated with K2D3
From the text: The conformation of helix 2 (^16TAEELKKFKLKLLSV^30) bound to ASC^PYD (Fig. 1A) was used as the starting structure for the peptide-protein interaction modeling. Following I,I + 7 stapling scheme, we inserted a hydrocarbon staple across positions 5 and 12 along the peptide and then introduced mutations to produce a set of stapled peptides. Two variants of the template peptide were designed – a short version containing 13 residues (ms_ASC^PYD #6) and a long version containing 15 residues (ms_ASC^PYD #1–5) with two additional residues at the N-terminus (Table 1). These two additional residues were inserted to increase the length of the peptide, thus potentially enabling sufficient conformational flexibility for the region involving the critical Arg3 to remain helical. A similar approach was taken to introduce the staple in the ms_NLRP3^PYD peptide. As determined from Circular Dichroism (CD) spectra, inserting the I,I + 7 staple had the intended effect of increasing helicity of the peptides (Fig. 3). […] Percentage of helicity was much higher for ASC^PYD stapled peptides #5 and #6, 95% and 70% respectively at 100 μM peptide concentration. Percentage of helicity for the peptides were estimated from the web server K2D3[36] using CD data.
Figure 3 Circular dichroism (CD) spectra of (A) NLRP3^PYD and (B) ASC^PYD peptides to measure secondary structures.

ASC = assay: Imaging of ASC speck oligomerization in THP-1 cells; assay type: cell-based, human; conditions: THP-1, LPS 0.1 μg/ml 4 h, nigericin 10 μM 1 h; 100 μM peptide; Fig. 8E
Experimental: Figure 8 ASC peptides effectively block IL-1β and IL-18 release and ASC oligomerization in human blood monocytes. (A) IL-1β and IL-18 were measured in cell-free supernatants from THP-1 cells incubated with FAM-ASC^PYD #5 or FAM-ASC^PYD #6 (12.5, 25,50 and 100 μM) for 24 h and primed with LPS (0.1 μg/ml, 4 h) followed by stimulation with nigericin (10 μM, 1 h), as assessed by ELISA. (B) Production of IL-1β and IL-18 from human blood monocytes stimulated or not with LPS (0.1 μg/ml, 4 h) alone or in a combination of ATP (5 mM, 30 min) in the presence of FAM-ASC^PYD #5 or FAM-ASC^PYD #6 (25, 50 and 100 μM) peptides. (C,D) Western blot analysis of processed IL-1β p17 (C) and Casp-1 p20 (D) in cell-free supernatants of THP-1 cells primed with LPS (0.1 μg/ml, 4 h), followed by stimulation with nigericin (10 μM, 1 h) in the presence of FAM-ASC^PYD #5 (25, 50 and 100 μM), FAM-ASC^PYD #6 (50 and 100 μM) peptides, or DMSO vehicle. Expression of pro-IL-1β p35 and pro-Casp-1 p50 was assessed in cell lysates. GAPDH was used as loading control. (E) Imaging of ASC speck oligomerization in THP-1 cells treated with LPS (0.1 μg/ml, 4 h) and nigericin (10 μM, 1 h) in the absence or presence of FAM-ASC^PYD #5 or FAM-ASC^PYD #6 (100 μM) peptides. The number of ASC specks were counted manually in at least 100 cells, and the proportion of cells containing a speck was shown. […]

In the case of CC[C@H](C)[C@@H]1NC(=O)[C@H](CCCCN)NC(=O)[C@H](C)NC(=O)[C@H](CC(C)C)NC(=O)[C@H](CCCCN)NC(=O)[C@](C)(NC(=O)[C@H](C)NC(=O)[C@H](CCCNC(=N)N)NC(=O)[C@H](C)NC(=O)[C@@H](NC(C)=O)[C@@H](C)O)CCCCCCC=CCCC[C@@](C)(C(=O)N[C@@H](CCC(=O)O)C(=O)N[C@@H](CO)C(=O)N[C@H](C(N)=O)C(C)C)NC(=O)[C@H](CCCCN)NC1=O [ms_ASC^PYD #5] (Ac-TARA[R8]KLAKIK[S5]ESV-NH2; staple 5-12), the “IL-18 secretion (in words)” value (NLRP3 inflammasome [1]) is reported as “effectively inhibited”, the “IL-1β secretion (in words)” value (NLRP3 inflammasome [2]) is reported as “effectively inhibited” and the “IL-18 production (in words)” value (NLRP3 inflammasome [3]) is reported as “decreased IL-18 production by LPS/nigericin-stimulated THP-1 cells in a dose-dependent manner”. The Percentage of helicity [4] was 95% and the ASC speck formation (ASC) was “significantly inhibited speck formation”.

With CC[C@H](C)[C@@H]1NC(=O)[C@H](CCCCN)NC(=O)[C@H](C)NC(=O)[C@H](CCCCN)NC(=O)[C@H](CCCCN)NC(=O)[C@](C)(NC(=O)[C@H](C)NC(=O)[C@H](CCCNC(=N)N)NC(C)=O)CCCCCCC=CCCC[C@@](C)(C(=O)N[C@@H](CCC(=O)O)C(=O)N[C@@H](CO)C(=O)N[C@H](C(N)=O)C(C)C)NC(=O)[C@H](CCCCN)NC1=O [ms_ASC^PYD #6] (Ac-RA[R8]KKAKIK[S5]ESV-NH2; staple 3-10) the “IL-18 secretion (in words)” value (NLRP3 inflammasome [1]) was “effectively inhibited”, the “IL-1β secretion (in words)” value (NLRP3 inflammasome [2]) was “effectively inhibited” and the “IL-18 production (in words)” value (NLRP3 inflammasome [3]) was “decreased IL-18 production by LPS/nigericin-stimulated THP-1 cells in a dose-dependent manner”. The Percentage of helicity [4] was 70% and the ASC speck formation (ASC) was “significantly inhibited speck formation”.
